# Laboratory results from ChEMBL document CHEMBL5678818, “Discovery of potent SOS1 inhibitors that block RAS activation via disruption of the RAS-SOS1 interaction” (Proc Natl Acad Sci U S A, 2019).
# What was measured:
# [1] = molecular target: SRSF protein kinase 3 (Homo sapiens) (UniProt Q9UPE1); test: Inhibition of SRPK3 (unknown origin) assessed as residual activity at 1000 nM by KINOMEscan analysis relative to control
# [2] = molecular target: Myosin light chain kinase, smooth muscle (Homo sapiens) (UniProt Q15746); test: Inhibition of MYLK (unknown origin) assessed as residual activity at 1000 nM by KINOMEscan analysis relative to control
# [3] = molecular target: Interleukin-1 receptor-associated kinase 1 (Homo sapiens) (UniProt P51617); test: Inhibition of IRAK1 (unknown origin) assessed as residual activity at 1000 nM by KINOMEscan analysis relative to control
# [4] = molecular target: Serine/threonine-protein kinase PLK3 (Homo sapiens) (UniProt Q9H4B4); test: Inhibition of PLK3 (unknown origin) assessed as residual activity at 1000 nM by KINOMEscan analysis relative to control
# Sequence of Serine/threonine-protein kinase PLK3 (Homo sapiens) (Q9H4B4 whole entry, looked up): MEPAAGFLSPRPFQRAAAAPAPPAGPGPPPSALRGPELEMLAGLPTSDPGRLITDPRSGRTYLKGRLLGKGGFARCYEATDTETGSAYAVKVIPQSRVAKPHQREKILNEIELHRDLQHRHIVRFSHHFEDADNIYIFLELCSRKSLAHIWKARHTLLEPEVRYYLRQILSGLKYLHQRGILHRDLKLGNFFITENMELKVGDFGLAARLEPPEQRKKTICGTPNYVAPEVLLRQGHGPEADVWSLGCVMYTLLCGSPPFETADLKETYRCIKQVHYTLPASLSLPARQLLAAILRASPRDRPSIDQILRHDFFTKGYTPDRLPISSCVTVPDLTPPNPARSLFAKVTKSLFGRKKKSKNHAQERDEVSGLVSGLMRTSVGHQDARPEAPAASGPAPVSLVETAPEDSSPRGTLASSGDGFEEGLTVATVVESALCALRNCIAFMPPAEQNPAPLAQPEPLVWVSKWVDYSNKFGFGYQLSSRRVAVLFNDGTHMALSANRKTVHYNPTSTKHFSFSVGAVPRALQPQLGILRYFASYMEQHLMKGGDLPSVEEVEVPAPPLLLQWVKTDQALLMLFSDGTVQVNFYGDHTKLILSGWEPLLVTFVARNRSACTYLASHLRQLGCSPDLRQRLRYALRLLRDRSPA
# [5] = molecular target: Serine/threonine-protein kinase/endoribonuclease IRE1 (Homo sapiens) (UniProt O75460); test: Inhibition of ERN1 (unknown origin) assessed as residual activity at 1000 nM by KINOMEscan analysis relative to control
# [6] = molecular target: T1, Serine/threonine-protein kinase TBK1 (Homo sapiens) (UniProt Q9UHD2); test: Inhibition of TBK1 (unknown origin) assessed as residual activity at 1000 nM by KINOMEscan analysis relative to control
# T1 sequence (whole entry): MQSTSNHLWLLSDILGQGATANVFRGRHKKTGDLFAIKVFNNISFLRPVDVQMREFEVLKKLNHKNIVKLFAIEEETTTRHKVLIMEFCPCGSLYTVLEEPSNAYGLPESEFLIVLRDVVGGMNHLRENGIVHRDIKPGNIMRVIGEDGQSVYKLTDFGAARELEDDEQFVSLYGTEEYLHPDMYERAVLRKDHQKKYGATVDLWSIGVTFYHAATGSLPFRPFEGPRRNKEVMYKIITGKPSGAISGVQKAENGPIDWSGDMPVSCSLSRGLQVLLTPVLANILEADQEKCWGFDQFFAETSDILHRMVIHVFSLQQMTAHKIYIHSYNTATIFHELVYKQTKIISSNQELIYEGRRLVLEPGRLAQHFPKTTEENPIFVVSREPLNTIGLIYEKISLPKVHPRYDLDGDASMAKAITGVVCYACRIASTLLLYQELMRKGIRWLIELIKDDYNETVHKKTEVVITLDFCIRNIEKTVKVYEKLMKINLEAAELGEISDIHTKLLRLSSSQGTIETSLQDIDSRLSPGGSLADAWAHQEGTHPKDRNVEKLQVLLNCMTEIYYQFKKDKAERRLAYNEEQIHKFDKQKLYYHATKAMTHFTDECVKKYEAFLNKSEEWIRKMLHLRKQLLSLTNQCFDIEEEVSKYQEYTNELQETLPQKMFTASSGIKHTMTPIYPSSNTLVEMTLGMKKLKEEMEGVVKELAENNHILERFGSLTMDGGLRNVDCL
# [7] = molecular target: Tyrosine-protein kinase SYK (Homo sapiens) (UniProt P43405); test: Inhibition of SYK (unknown origin) assessed as residual activity at 1000 nM by KINOMEscan analysis relative to control
# [8] = molecular target: Tyrosine-protein kinase receptor Tie-1 (Homo sapiens) (UniProt P35590); test: Inhibition of TIE1 (unknown origin) assessed as residual activity at 1000 nM by KINOMEscan analysis relative to control
# Sequence of Tyrosine-protein kinase receptor Tie-1 (Homo sapiens) (P35590 whole entry): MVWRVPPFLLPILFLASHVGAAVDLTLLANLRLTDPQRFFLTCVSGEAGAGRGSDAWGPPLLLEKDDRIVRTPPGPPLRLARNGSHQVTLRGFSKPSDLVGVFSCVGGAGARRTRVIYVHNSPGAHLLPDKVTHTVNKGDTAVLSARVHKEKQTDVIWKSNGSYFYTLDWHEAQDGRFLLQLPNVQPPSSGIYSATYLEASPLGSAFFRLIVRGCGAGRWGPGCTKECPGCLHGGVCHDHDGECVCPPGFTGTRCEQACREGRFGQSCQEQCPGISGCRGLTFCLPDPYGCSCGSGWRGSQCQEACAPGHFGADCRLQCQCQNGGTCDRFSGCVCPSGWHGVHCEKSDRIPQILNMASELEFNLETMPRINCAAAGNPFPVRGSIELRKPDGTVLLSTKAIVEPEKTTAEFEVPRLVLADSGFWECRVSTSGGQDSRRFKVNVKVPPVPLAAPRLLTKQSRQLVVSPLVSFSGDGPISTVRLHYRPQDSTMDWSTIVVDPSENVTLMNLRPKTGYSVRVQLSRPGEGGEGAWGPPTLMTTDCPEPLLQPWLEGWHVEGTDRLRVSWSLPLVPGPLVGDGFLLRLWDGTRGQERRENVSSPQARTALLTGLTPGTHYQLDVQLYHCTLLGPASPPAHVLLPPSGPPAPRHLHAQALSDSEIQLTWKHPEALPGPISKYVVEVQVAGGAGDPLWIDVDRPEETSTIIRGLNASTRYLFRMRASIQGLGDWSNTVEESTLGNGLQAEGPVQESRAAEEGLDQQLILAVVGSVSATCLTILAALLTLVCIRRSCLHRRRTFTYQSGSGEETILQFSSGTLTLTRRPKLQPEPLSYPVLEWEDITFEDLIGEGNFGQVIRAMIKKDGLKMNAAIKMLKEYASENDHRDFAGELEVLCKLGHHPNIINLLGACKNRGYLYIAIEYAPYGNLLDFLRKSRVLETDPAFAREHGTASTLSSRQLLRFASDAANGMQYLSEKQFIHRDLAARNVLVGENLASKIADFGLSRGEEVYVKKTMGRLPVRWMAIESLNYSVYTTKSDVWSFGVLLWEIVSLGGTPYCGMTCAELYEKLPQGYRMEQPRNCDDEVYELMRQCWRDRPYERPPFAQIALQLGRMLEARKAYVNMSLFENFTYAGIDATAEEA
# [9] = molecular target: Serine/threonine-protein kinase SIK1 (Homo sapiens) (UniProt P57059); test: Inhibition of SIK (unknown origin) assessed as residual activity at 1000 nM by KINOMEscan analysis relative to control
# Sequence of Serine/threonine-protein kinase SIK1 (Homo sapiens) (P57059 whole entry): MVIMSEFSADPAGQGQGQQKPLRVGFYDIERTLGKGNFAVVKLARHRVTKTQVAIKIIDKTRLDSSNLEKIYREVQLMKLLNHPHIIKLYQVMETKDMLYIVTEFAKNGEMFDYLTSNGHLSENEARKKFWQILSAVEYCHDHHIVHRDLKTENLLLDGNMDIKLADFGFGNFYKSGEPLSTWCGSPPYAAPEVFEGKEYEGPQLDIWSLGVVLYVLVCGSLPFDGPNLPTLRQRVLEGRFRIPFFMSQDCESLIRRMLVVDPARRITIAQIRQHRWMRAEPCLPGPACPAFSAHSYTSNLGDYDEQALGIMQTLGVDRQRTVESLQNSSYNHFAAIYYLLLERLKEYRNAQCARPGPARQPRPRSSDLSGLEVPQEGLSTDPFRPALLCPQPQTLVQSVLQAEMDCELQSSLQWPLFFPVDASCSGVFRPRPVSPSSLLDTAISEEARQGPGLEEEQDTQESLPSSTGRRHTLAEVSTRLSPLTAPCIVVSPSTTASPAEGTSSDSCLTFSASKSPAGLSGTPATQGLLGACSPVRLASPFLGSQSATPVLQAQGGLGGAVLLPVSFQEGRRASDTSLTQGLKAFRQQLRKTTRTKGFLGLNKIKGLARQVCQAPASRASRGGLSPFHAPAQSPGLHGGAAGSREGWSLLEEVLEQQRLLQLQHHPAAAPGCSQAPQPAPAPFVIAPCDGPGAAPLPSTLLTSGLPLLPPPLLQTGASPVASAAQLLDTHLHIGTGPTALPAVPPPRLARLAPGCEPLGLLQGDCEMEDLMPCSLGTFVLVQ
# [10] = molecular target: Transient receptor potential cation channel subfamily M member 6 (Homo sapiens) (UniProt Q9BX84); test: Inhibition of TRPM6 (unknown origin) assessed as residual activity at 1000 nM by KINOMEscan analysis relative to control
# Sequence of Transient receptor potential cation channel subfamily M member 6 (Homo sapiens) (Q9BX84 whole entry): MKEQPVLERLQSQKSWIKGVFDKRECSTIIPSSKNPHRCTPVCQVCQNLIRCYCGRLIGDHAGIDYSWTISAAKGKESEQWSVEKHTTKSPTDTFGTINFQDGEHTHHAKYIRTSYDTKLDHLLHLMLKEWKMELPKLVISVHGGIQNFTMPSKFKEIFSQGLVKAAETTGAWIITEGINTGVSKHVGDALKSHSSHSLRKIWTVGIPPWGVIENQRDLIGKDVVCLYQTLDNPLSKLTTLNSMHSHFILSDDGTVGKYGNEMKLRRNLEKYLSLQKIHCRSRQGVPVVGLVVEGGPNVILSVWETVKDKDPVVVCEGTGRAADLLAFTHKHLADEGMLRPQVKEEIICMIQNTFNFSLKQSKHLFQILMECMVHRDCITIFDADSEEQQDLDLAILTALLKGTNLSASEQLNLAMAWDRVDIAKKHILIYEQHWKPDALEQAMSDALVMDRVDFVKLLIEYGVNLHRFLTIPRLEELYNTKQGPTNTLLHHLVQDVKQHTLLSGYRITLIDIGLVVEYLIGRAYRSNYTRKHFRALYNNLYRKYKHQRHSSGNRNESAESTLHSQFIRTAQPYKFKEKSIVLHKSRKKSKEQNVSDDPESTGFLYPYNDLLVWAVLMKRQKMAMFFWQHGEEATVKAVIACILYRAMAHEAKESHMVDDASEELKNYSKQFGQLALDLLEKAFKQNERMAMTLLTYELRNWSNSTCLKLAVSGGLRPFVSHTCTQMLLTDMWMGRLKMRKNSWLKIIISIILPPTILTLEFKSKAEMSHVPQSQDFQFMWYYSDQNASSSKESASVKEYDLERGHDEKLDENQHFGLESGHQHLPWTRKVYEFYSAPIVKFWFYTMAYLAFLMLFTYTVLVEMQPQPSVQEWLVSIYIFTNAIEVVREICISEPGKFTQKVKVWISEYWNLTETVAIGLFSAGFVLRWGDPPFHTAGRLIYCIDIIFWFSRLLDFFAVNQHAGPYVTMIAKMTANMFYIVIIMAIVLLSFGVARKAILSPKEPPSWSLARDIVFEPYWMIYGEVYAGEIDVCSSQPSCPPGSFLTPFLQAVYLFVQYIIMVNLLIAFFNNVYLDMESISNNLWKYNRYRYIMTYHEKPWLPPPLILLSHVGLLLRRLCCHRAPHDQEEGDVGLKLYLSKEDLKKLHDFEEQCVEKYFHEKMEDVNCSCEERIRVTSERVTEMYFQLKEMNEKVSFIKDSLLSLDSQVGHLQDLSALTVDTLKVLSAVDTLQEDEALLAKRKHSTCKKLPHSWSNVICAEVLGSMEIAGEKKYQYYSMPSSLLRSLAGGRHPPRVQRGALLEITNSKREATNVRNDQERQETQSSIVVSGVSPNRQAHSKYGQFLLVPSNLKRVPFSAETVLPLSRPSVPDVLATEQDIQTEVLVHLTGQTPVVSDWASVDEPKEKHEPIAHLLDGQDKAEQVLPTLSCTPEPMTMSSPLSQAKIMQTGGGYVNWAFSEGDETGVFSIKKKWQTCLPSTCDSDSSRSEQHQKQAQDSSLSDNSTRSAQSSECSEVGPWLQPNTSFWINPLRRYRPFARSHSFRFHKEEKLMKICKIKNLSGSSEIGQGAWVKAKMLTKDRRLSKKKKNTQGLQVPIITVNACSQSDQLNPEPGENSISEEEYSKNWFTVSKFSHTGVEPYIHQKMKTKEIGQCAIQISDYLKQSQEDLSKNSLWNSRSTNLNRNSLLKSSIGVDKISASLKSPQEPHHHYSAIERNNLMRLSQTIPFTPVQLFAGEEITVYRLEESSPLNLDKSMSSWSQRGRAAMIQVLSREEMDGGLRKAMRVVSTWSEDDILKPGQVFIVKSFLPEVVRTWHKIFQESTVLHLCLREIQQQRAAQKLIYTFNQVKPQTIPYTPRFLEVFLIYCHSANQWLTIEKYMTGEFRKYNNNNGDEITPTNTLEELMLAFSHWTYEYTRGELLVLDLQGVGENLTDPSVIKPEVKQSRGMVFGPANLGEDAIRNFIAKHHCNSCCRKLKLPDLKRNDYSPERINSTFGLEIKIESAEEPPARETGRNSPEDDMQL
# [11] = molecular target: T2, Serine/threonine-protein kinase Nek5 (Homo sapiens) (UniProt Q6P3R8); test: Inhibition of NEK5 (unknown origin) assessed as residual activity at 1000 nM by KINOMEscan analysis relative to control
# T2 sequence (whole entry): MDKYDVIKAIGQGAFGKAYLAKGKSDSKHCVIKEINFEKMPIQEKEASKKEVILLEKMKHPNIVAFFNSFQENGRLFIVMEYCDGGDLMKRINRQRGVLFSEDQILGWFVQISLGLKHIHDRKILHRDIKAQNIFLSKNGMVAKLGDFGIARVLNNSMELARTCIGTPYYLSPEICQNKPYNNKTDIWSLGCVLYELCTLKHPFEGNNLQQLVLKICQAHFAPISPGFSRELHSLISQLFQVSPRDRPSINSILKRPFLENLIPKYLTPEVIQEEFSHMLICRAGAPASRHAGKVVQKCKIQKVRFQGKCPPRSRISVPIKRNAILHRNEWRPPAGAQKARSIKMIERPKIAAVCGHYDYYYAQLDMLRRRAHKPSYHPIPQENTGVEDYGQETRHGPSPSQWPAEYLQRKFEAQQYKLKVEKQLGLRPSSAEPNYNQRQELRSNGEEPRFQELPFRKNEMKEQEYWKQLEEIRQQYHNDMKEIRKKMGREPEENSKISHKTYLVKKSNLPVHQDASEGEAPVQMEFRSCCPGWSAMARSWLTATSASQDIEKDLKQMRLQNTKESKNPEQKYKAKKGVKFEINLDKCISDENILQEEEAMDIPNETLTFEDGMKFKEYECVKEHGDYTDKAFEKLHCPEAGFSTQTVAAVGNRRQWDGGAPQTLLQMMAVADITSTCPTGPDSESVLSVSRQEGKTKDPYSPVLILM
# [12] = molecular target: T3, Mitogen-activated protein kinase kinase kinase 7 (Homo sapiens) (UniProt O43318); test: Inhibition of TAK1 (unknown origin) assessed as residual activity at 1000 nM by KINOMEscan analysis relative to control
# T3 sequence (whole entry): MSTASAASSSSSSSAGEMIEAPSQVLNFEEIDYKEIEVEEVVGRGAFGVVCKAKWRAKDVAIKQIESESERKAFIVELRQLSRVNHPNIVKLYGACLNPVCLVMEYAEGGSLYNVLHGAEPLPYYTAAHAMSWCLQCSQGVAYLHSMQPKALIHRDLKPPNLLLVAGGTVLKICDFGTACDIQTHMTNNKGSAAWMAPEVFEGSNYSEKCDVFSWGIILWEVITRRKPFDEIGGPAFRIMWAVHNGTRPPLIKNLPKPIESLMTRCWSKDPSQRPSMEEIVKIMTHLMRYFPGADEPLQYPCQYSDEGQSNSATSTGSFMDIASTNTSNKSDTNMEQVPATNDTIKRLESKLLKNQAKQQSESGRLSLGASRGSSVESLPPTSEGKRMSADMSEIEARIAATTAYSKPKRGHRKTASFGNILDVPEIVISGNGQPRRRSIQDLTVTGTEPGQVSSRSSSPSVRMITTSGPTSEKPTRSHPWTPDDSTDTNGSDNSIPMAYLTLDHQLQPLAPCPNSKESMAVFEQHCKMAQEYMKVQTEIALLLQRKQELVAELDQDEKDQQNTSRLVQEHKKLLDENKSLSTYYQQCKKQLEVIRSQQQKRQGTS
SMILES,Activity [1],Activity [2],Activity [3],Activity [4],Activity [5],Activity [6],Activity [7],Activity [8],Activity [9],Activity [10],Activity [11],Activity [12]
COc1cc2nc(C)nc(N[C@H](C)c3cccc(-c4cn[nH]c4)c3)c2cc1OC,93%,97%,68%,88%,94%,66%,76%,87%,65%,84%,90%,100%
COc1cc2ncnc(N[C@H](C)c3cccc4ccccc34)c2cc1OC,100%,88%,85%,81%,92%,100%,100%,100%,98%,100%,85%,85%
